Measured values from paper PMC7127386 (Antiviral Research, 2020).
Entries after “also recorded” stand apart in the source; their conditions may differ. Where two headings read alike, the source gives them in different places.

Legend:
SARS-CoV-2 virus [1] = type: cell-based
SARS-CoV-2 virus [2] = type: cell-based; remark: listed apart in the source
SARS-CoV-2 virus [3] = type: cell-based; conditions: read-out: Reduction in infectious virus (EC50)
SARS-CoV-2 virus [4] = type: cell-based; conditions: read-out: Reduction in viral RNA copy (EC50)

| Compound | CPE inhibition (lowest concentration of the compound with 100% CPE inhibition) (SARS-CoV-2 virus [1]) | Antiviral effect against SARS-CoV-2 virus in vitro (in words) (SARS-CoV-2 virus [2]) | other results |
| --- | --- | --- | --- |
| CN[C@H]1C(=O)N[C@@H]2Cc3ccc(cc3)Oc3cc4cc(c3O[C@@H]3O[C@H](C(=O)O)[C@@H](O)[C@H](O)[C@H]3NC(=O)CCCCCCCCC(C)C)Oc3ccc(cc3Cl)[C@@H](O)[C@@H]3NC(=O)[C@H](NC(=O)[C@@H]4NC(=O)[C@@H](NC2=O)c2cc(cc(O)c2Cl)Oc2cc1ccc2O)c1ccc(O)c(c1)-c1c(O[C@H]2O[C@H](CO)[C@@H](O)[C@H](O)[C@@H]2O)cc(O)cc1[C@@H](C(=O)NCCCN(C)C)NC3=O.Cl [Dalbavancin hydrochloride] | >100 µM | – | – |
| NC(=O)c1nc(F)c[nH]c1=O [Favipiravir] | – | no apparent antiviral effect; also recorded: did not inhibit viral replication | Inhibition of SARS-CoV-2 (in words) (SARS-CoV-2 virus [2]): no inhibition |
| Nc1nc(F)nc2c1ncn2[C@@H]1O[C@H](COP(=O)(O)O)[C@@H](O)[C@@H]1O [Fludarabine phosphate] | – | did not inhibit viral replication | – |
| Nc1ncnc2c([C@@H]3N[C@H](CO)[C@@H](O)[C@H]3O)c[nH]c12 [Galidesivir] | – | did not inhibit viral replication | – |
| CN[C@H](CC(C)C)C(=O)N[C@H]1C(=O)N[C@@H](CC(N)=O)C(=O)N[C@H]2C(=O)N[C@H]3C(=O)N[C@H](C(=O)N[C@H](C(=O)O)c4cc(O)cc(O)c4-c4cc3ccc4O)[C@H](O[C@H]3C[C@](C)(N)[C@@H](O)[C@H](C)O3)c3ccc(c(Cl)c3)Oc3cc2cc(c3O[C@@H]2O[C@H](CO)[C@@H](O)[C@H](O)[C@H]2O[C@H]2C[C@](C)(NCc3ccc(-c4ccc(Cl)cc4)cc3)[C@@H](O)[C@H](C)O2)Oc2ccc(cc2Cl)[C@H]1O.O=P(O)(O)O.O=P(O)(O)O [Oritavancin diphosphate] | >100 µM | – | – |
| CCC(CC)O[C@@H]1C=C(C(=O)O)C[C@H](N)[C@H]1NC(C)=O [Oseltamivir carboxylate] | >100 µM | no apparent antiviral effect | EC50 (SARS-CoV-2 virus [3]): > 100 µM; EC50 (SARS-CoV-2 virus [4]): > 100 µM; CC50 (Vero E6 cells): > 100 µM |
| [N-]=[N+]=N[C@]1(CO)O[C@@H](n2ccc(N)nc2=O)[C@H](O)[C@@H]1O [R-1479] | >100 µM | did not inhibit viral replication | CC50 (Vero E6 cells): > 100 µM |
| NC(=O)c1ncn([C@@H]2O[C@H](CO)[C@@H](O)[C@H]2O)n1 [Ribavirin] | – | no apparent antiviral effect; also recorded: did not inhibit viral replication | Inhibition of SARS-CoV-2 (in words) (SARS-CoV-2 virus [2]): no inhibition |
| C[C@H](Cn1cnc2c(N)ncnc21)OCP(=O)(O)O [Tenofovor] | – | did not inhibit viral replication | – |
